How the values were obtained:
hERG (KCNH2) [1] = biological target: T1, hERG (KCNH2) (Homo sapiens, UniProt Q12809); test: Inhibition of human ERG at 10 uM by automated patch-clamp assay relative to control
hERG (KCNH2) [2] = biological target: T1, hERG (KCNH2); test: Inhibition of human ERG at 1 uM by automated patch-clamp assay relative to control
Autotaxin = Autotaxin (Homo sapiens, UniProt Q13822); test: Inhibition of human ATX assessed as reduction in LPA formation using FS-3 as substrate preincubated for 30 mins followed by substrate addition and measured after 2 hrs by FRET assay
[3] = Total brain to plasma concentration ratio in rat at 10 mg/kg, po measured after 4 hrs; type: ADME, organism-based; conditions: brain and plasma, read-out: BPR
[4] = Protein binding in human plasma assessed as unbound fraction at 2 uM by rapid equilibrium dialysis method; type: ADME, cell-free
[5] = Protein binding in rat plasma assessed as unbound fraction; type: ADME, cell-free
[6] = Clearance in rat at 10 mg/kg, po; type: ADME, organism-based; conditions: in vivo
[7] = Drug concentration in rat brain at 10 mg/kg, po after 4 hrs; type: ADME, organism-based; conditions: read-out: Ct

T1 sequence (Q12809 whole entry): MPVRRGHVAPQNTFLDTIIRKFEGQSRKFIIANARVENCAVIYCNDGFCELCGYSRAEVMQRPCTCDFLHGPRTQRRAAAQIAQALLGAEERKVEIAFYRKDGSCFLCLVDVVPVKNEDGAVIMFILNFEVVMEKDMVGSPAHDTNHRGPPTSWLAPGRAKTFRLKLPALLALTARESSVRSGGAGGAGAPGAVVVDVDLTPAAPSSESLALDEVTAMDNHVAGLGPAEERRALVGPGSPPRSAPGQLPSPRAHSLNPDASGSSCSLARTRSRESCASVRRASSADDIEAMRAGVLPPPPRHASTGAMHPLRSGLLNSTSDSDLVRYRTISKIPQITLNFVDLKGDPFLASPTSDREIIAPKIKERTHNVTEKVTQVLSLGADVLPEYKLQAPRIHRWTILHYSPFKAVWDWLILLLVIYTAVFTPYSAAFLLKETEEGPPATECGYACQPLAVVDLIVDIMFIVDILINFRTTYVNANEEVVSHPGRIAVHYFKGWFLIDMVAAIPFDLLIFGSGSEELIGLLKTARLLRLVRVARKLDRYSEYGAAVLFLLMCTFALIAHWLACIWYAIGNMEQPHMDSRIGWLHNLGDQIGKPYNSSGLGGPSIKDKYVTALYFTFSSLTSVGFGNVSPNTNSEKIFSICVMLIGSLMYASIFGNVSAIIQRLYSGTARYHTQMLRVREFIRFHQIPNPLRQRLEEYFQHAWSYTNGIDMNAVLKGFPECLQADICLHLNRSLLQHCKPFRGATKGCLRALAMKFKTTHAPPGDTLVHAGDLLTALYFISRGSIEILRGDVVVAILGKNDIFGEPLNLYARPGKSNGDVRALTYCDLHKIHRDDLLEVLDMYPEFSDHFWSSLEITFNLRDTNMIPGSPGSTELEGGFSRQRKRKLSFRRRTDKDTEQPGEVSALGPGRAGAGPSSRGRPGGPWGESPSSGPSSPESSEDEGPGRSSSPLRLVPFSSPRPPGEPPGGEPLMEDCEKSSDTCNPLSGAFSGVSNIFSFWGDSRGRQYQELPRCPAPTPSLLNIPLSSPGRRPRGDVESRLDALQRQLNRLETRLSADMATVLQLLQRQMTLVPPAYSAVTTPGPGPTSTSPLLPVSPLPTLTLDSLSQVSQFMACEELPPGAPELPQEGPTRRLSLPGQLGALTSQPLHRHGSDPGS

C[C@H](c1ccc2ccc(O[C@H]3CC[C@@H](C)CC3)c(C(F)(F)F)c2c1)N1C2CCCC1CC(C(=O)O)C2 (some centres not stated) gave an inhibition at 10 µM (hERG (KCNH2) [1]) of 29.6%, an inhibition at 1 µM (hERG (KCNH2) [2]) of 8.4% and an IC50 (Autotaxin) of 330 nM.
O=C(O)CCCNCc1ccc2c(C(F)(F)F)c(O[C@H]3CC[C@@H](C(F)(F)F)CC3)ccc2c1 showed an IC50 (Autotaxin) of 1300 nM.
In the case of O=C(NCCCP(=O)(O)O)c1ccc2c(C(F)(F)F)c(O[C@H]3CC[C@@H](C(F)(F)F)CC3)ccc2c1, the IC50 (Autotaxin) is reported as 28 nM.
C[C@@H](c1ccc2ccc(O[C@H]3CC[C@@H](C)CC3)c(C(F)(F)F)c2c1)N1C2CCC1CC(C(=O)O)C2 (some centres not stated) gave a Kp at 4 h [3] of 0.8, a Fu [4] of 0.18% and a Fu [5] of 0.22%. The CL/F [6] was 94 mL/min/kg and the concentration at 4 h [7] was 103 ng/mL.
C[C@H]1CC[C@@H](Oc2ccc3ccc(CN4C5CCC4CC(C(=O)O)C5)cc3c2C(F)(F)F)CC1 (some centres not stated) showed an inhibition at 10 µM (hERG (KCNH2) [1]) of 65%, an inhibition at 1 µM (hERG (KCNH2) [2]) of 6% and an IC50 (Autotaxin) of 100 nM.
C[C@H]1CC[C@@H](Oc2ccc3ccc(CN4C5CCCC4CC(C(=O)O)C5)cc3c2C(F)(F)F)CC1 (some centres not stated) gave an inhibition at 10 µM (hERG (KCNH2) [1]) of 84%, an inhibition at 1 µM (hERG (KCNH2) [2]) of 12% and an IC50 (Autotaxin) of 8.2 nM.
For CCCCCCCCCCCCCC(=O)OC[C@@H](O)COP(=O)(O)O, the IC50 (Autotaxin) was 110 nM.
C[C@@H](c1ccc2ccc(O[C@H]3CC[C@@H](C)CC3)c(C(F)(F)F)c2c1)N1C2CCCC1CC(C(=O)O)C2 (some centres not stated) showed an inhibition at 10 µM (hERG (KCNH2) [1]) of 24.4%, an inhibition at 1 µM (hERG (KCNH2) [2]) of 4.6% and an IC50 (Autotaxin) of 3.6 nM.
For O=C(O)C1CCN(Cc2ccc3c(C(F)(F)F)c(O[C@H]4CC[C@@H](C(F)(F)F)CC4)ccc3c2)CC1, the inhibition at 10 µM (hERG (KCNH2) [1]) was 86.8%, the inhibition at 1 µM (hERG (KCNH2) [2]) was 6.6% and the IC50 (Autotaxin) was 370 nM.
With O=C(O)CCCNC(=O)c1ccc2c(C(F)(F)F)c(O[C@H]3CC[C@@H](C(F)(F)F)CC3)ccc2c1 the IC50 (Autotaxin) was 3700 nM.
For C[C@H]1CC[C@@H](Oc2ccc3cc(CN4C5CCCC4CC(C(=O)O)C5)ccc3c2C(F)(F)F)CC1 (some centres not stated), the inhibition at 10 µM (hERG (KCNH2) [1]) was 52.7%, the inhibition at 1 µM (hERG (KCNH2) [2]) was 1.6% and the IC50 (Autotaxin) was 38 nM.
